Reference: paper PMC6364417, “Kinase inhibitor library screening identifies synergistic drug combinations effective in sensitive and resistant melanoma cells” (Journal of Experimental & Clinical Cancer Research : CR, 2019)

Assays:
Assay in all cases: Kinase inhibitor library screening, PrestoBlue cell viability, 1 or 10 μM, 72 h
[1] = tested on: 501Mel-GP cells (Dabrafenib-resistant); conditions: 501Mel GP, in %
[2] = tested on: IGR37-XP cells (Vemurafenib-resistant); conditions: IGR37 XP
[3] = tested on: A375-GP cells (Dabrafenib-resistant); conditions: A375 GP
A375 cells (parental) = conditions: A375 Parental; for cell viability, A375 Parental, 1μΜ / cell viability, A375 Parental, 10μΜ / cell viability (kinase inhibitor library screening): in %
[4] = tested on: A375-XP cells (Vemurafenib-resistant); conditions: A375 XP
[5] = tested on: IGR37-GP cells (Dabrafenib-resistant); conditions: IGR37 GP
IGR37 cells (parental) = conditions: IGR37 Parental, in %
[6] = tested on: 501Mel-XP cells (Vemurafenib-resistant); conditions: 501Mel XP, in %
501Mel cells (parental) = conditions: 501Mel Parental, in %
Outline: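 PrestoBlue viability readout after 72 h exposure to each inhibitor at 1 or 10 μM, reported relative to untreated cells as % viability. Lines tested: sensitive parental plus derivatives resistant to Vemurafenib (XP) or Dabrafenib (GP), each run at least in duplicate.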

## Nc1cccc(-c2cc3c(Oc4cccc(O)c4)ncnc3[nH]2)c1 [TWS119]
[1]; 10μΜ, 72 h
  cell viability, 501Mel GP, 10μΜ: 40.8
[2]; 10μΜ, 72 h
  cell viability, IGR37 XP, 10μΜ: 33.3%
[2]; 1μΜ, 72 h, in %
  cell viability, IGR37 XP, 1μΜ: 80.5
[3]; 1μΜ, 72 h, in %
  cell viability, A375 GP, 1μΜ: 97.7
[3]; 10μΜ, 72 h, in %
  cell viability, A375 GP, 10μΜ: 41.9
A375 cells (parental); 1μΜ, 72 h
  cell viability, A375 Parental, 1μΜ: 93.6
A375 cells (parental); 10μΜ, 72 h
  cell viability, A375 Parental, 10μΜ: 29.8
[4]; 1μΜ, 72 h, in %
  cell viability, A375 XP, 1μΜ: 96.8
[4]; 10μΜ, 72 h, in %
  cell viability, A375 XP, 10μΜ: 67.4
[5]; 10μΜ, 72 h
  cell viability, IGR37 GP, 10μΜ: 61.4%
[5]; 1μΜ, 72 h, in %
  cell viability, IGR37 GP, 1μΜ: 96.5
IGR37 cells (parental); 1μΜ, 72 h
  cell viability, IGR37 Parental, 1μΜ: 100.4
IGR37 cells (parental); 10μΜ, 72 h
  cell viability, IGR37 Parental, 10μΜ: 65.2
[6]; 1μΜ, 72 h
  cell viability, 501Mel XP, 1μΜ: 95.3
[6]; 10μΜ, 72 h
  cell viability, 501Mel XP, 10μΜ: 26.6
501Mel cells (parental); 1μΜ, 72 h
  cell viability, 501Mel Parental, 1μΜ: 90.4
501Mel cells (parental); 10μΜ, 72 h
  cell viability, 501Mel Parental, 10μΜ: 35.3

## COc1cc2c(N3CCN(C(=O)Nc4ccc(OC(C)C)cc4)CC3)ncnc2cc1OCCCN1CCCCC1 [Tandutinib (MLN518)]
[1]; 1μΜ, 72 h
  cell viability, 501Mel GP, 1μΜ: 103.5
[1]; 10μΜ, 72 h
  cell viability, 501Mel GP, 10μΜ: 85.5
[2]; 10μΜ, 72 h
  cell viability, IGR37 XP, 10μΜ: 43.4%
[2]; 1μΜ, 72 h, in %
  cell viability, IGR37 XP, 1μΜ: 103.1
[3]; 10μΜ, 72 h, in %
  cell viability, A375 GP, 10μΜ: 83.5
A375 cells (parental); 1μΜ, 72 h
  cell viability, A375 Parental, 1μΜ: 106.1
A375 cells (parental); 10μΜ, 72 h
  cell viability, A375 Parental, 10μΜ: 89.7
[4]; 1μΜ, 72 h, in %
  cell viability, A375 XP, 1μΜ: 107.0
[5]; 10μΜ, 72 h
  cell viability, IGR37 GP, 10μΜ: 91.4%
[5]; 1μΜ, 72 h, in %
  cell viability, IGR37 GP, 1μΜ: 95.6
IGR37 cells (parental); 1μΜ, 72 h
  cell viability, IGR37 Parental, 1μΜ: 100.2
IGR37 cells (parental); 10μΜ, 72 h
  cell viability, IGR37 Parental, 10μΜ: 98.5
[6]; 1μΜ, 72 h
  cell viability, 501Mel XP, 1μΜ: 94.1
[6]; 10μΜ, 72 h
  cell viability, 501Mel XP, 10μΜ: 71.2
501Mel cells (parental); 10μΜ, 72 h
  cell viability, 501Mel Parental, 10μΜ: 95.2

## CNC(=O)c1cc(COc2nnc(Nc3ccc(Cl)cc3)c3ccoc23)ccn1 [Telatinib (BAY 57-9352)]
[1]; 1μΜ
  cell viability (kinase inhibitor library screening): 99.0
[1]; 10μΜ
  cell viability (kinase inhibitor library screening): 76.1
[2]; 1μΜ, in %
  cell viability (kinase inhibitor library screening): 98.1
[2]; 10μΜ, in %
  cell viability (kinase inhibitor library screening): 70.8
[3]; 1μΜ, in %
  cell viability (kinase inhibitor library screening): 98.3
[3]; 10μΜ, in %
  cell viability (kinase inhibitor library screening): 92.0
A375 cells (parental); 1μΜ
  cell viability (kinase inhibitor library screening): 99.4
A375 cells (parental); 10μΜ
  cell viability (kinase inhibitor library screening): 95.9
[4]; 1μΜ, in %
  cell viability (kinase inhibitor library screening): 96.6
[4]; 10μΜ, in %
  cell viability (kinase inhibitor library screening): 95.7
[5]; 1μΜ, in %
  cell viability (kinase inhibitor library screening): 94.5
[5]; 10μΜ, in %
  cell viability (kinase inhibitor library screening): 88.0
IGR37 cells (parental); 1μΜ
  cell viability (kinase inhibitor library screening): 99.2
IGR37 cells (parental); 10μΜ
  cell viability (kinase inhibitor library screening): 97.3
[6]; 10μΜ
  cell viability (kinase inhibitor library screening): 68.9
501Mel cells (parental); 1μΜ
  cell viability (kinase inhibitor library screening): 96.8
501Mel cells (parental); 10μΜ
  cell viability (kinase inhibitor library screening): 90.0

## CO[C@H]1C[C@@H]2CC[C@@H](C)[C@@](O)(O2)C(=O)C(=O)N2CCCC[C@H]2C(=O)O[C@H]([C@H](C)C[C@@H]2CC[C@@H](OC(=O)C(C)(CO)CO)[C@H](OC)C2)CC(=O)[C@H](C)/C=C(\C)[C@@H](O)[C@@H](OC)C(=O)[C@H](C)C[C@H](C)/C=C/C=C/C=C/1C [Temsirolimus (Torisel)]
[1]; 1μΜ, 72 h
  Cell viability in kinase inhibitor library screening, 501Mel GP, 1μΜ: 69.5
[1]; 10μΜ, 72 h
  Cell viability in kinase inhibitor library screening, 501Mel GP, 10μΜ: 60.0
[2]; 10μΜ, 72 h
  Cell viability in kinase inhibitor library screening, IGR37 XP, 10μΜ: 5.5%
[2]; 1μΜ, 72 h, in %
  Cell viability in kinase inhibitor library screening, IGR37 XP, 1μΜ: 96.0
[3]; 1μΜ, 72 h
  Cell viability in kinase inhibitor library screening, A375 GP, 1μΜ: 81.2
[3]; 10μΜ, 72 h
  Cell viability in kinase inhibitor library screening, A375 GP, 10μΜ: 73.7
A375 cells (parental); 10μΜ, 72 h
  Cell viability in kinase inhibitor library screening, A375 Parental, 10μΜ: 73.5
A375 cells (parental); 1μΜ, 72 h
  Cell viability in kinase inhibitor library screening, A375 Parental, 1μΜ: 78.4
[4]; 1μΜ, 72 h
  Cell viability in kinase inhibitor library screening, A375 XP, 1μΜ: 81.1
[4]; 10μΜ, 72 h
  Cell viability in kinase inhibitor library screening, A375 XP, 10μΜ: 78.8
[5]; 10μΜ, 72 h
  Cell viability in kinase inhibitor library screening, IGR37 GP, 10μΜ: 41.7%
[5]; 1μΜ, 72 h, in %
  Cell viability in kinase inhibitor library screening, IGR37 GP, 1μΜ: 91.9
IGR37 cells (parental); 1μΜ, 72 h
  Cell viability in kinase inhibitor library screening, IGR37 Parental, 1μΜ: 79.0
IGR37 cells (parental); 10μΜ, 72 h
  Cell viability in kinase inhibitor library screening, IGR37 Parental, 10μΜ: 82.7
[6]; 1μΜ, 72 h
  Cell viability in kinase inhibitor library screening, 501Mel XP, 1μΜ: 55.1
[6]; 10μΜ, 72 h
  Cell viability in kinase inhibitor library screening, 501Mel XP, 10μΜ: 41.2
501Mel cells (parental); 1μΜ, 72 h
  Cell viability in kinase inhibitor library screening, 501Mel Parental, 1μΜ: 83.5
501Mel cells (parental); 10μΜ, 72 h
  Cell viability in kinase inhibitor library screening, 501Mel Parental, 10μΜ: 79.5
